Legend:
[1] = system: BR:MCF7; set-up: method as in earlier work; settings: NCI-60 panel; ref [4],[5],[6],[7]; cited from earlier work
[2] = system: CNS:SF-268; set-up: method as in earlier work; settings: NCI-60 panel; ref [4],[5],[6],[7]; cited from earlier work
[3] = system: CNS:SNB-19; set-up: method as in earlier work; settings: NCI-60 panel; ref [4],[5],[6],[7]; cited from earlier work
[4] = system: CO:HCT-15; set-up: method as in earlier work; settings: NCI-60 panel; ref [4],[5],[6],[7]; cited from earlier work
[5] = system: LE:MOLT-4; set-up: method as in earlier work; settings: NCI-60 panel; ref [4],[5],[6],[7]; cited from earlier work
[6] = system: ME:MALME-3M; set-up: method as in earlier work; settings: NCI-60 panel; ref [4],[5],[6],[7]; cited from earlier work
[7] = system: ME:MDA-MB-435; set-up: method as in earlier work; settings: NCI-60 panel; ref [4],[5],[6],[7]; cited from earlier work
[8] = system: LC:HOP-62; set-up: method as in earlier work; settings: NCI-60 panel; ref [4],[5],[6],[7]; cited from earlier work
[9] = system: LC:NCI-H226; set-up: method as in earlier work; settings: NCI-60 panel; ref [4],[5],[6],[7]; cited from earlier work
[10] = system: RE:RXF 393; set-up: method as in earlier work; settings: NCI-60 panel; ref [4],[5],[6],[7]; cited from earlier work
[11] = system: RE:UO-31; set-up: method as in earlier work; settings: NCI-60 panel; ref [4],[5],[6],[7]; cited from earlier work
[12] = target: AGTR1 (Homo sapiens, UniProt P30556); assay: gpcrMAX PathHunter beta-arrestin
[13] = target: AGTRL1 (Homo sapiens, UniProt P35414); assay: gpcrMAX PathHunter beta-arrestin
AGTRL1, sequence (P35414 whole entry): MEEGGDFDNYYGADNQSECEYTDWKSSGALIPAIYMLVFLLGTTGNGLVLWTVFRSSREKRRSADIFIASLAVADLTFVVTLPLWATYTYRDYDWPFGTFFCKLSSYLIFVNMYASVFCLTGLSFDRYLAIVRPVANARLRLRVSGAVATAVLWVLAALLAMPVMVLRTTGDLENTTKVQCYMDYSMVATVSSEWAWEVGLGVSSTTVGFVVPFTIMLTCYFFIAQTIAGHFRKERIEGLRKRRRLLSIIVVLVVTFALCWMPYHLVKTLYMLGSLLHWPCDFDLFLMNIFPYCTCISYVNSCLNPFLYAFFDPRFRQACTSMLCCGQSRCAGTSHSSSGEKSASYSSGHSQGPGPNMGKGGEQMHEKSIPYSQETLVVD

[14] = target: CHRM2 (Homo sapiens, UniProt P08172); assay: gpcrMAX PathHunter beta-arrestin
[15] = target: CHRM5 (Homo sapiens, UniProt P08912); assay: gpcrMAX PathHunter beta-arrestin
CHRM5, sequence (P08912 whole entry): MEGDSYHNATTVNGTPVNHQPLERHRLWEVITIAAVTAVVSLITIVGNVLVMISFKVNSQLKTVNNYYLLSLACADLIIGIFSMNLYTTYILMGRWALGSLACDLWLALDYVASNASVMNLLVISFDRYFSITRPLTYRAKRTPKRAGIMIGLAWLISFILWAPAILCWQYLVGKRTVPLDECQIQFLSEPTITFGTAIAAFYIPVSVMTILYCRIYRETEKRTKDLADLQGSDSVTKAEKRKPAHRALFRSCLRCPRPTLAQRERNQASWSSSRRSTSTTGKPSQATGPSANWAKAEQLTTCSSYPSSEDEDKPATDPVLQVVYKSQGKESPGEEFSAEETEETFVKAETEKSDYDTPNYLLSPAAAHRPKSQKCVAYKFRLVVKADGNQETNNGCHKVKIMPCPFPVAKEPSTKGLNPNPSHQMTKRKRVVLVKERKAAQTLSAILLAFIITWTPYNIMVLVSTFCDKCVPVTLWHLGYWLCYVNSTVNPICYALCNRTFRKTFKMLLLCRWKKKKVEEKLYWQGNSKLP

[16] = target: CXCR2 (Homo sapiens, UniProt P25025); assay: gpcrMAX PathHunter beta-arrestin
CXCR2, sequence (P25025 whole entry): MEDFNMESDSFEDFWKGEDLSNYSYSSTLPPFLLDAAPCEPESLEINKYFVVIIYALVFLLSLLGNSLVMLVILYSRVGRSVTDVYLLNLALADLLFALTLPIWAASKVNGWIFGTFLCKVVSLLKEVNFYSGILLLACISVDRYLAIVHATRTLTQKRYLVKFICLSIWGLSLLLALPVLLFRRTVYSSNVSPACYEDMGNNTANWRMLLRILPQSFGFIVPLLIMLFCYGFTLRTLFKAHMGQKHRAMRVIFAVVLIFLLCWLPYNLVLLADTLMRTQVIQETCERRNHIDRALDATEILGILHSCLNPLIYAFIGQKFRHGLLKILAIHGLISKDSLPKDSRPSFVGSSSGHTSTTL

[17] = target: CXCR3 (Homo sapiens, UniProt P49682); assay: gpcrMAX PathHunter beta-arrestin
CXCR3, sequence (P49682 whole entry): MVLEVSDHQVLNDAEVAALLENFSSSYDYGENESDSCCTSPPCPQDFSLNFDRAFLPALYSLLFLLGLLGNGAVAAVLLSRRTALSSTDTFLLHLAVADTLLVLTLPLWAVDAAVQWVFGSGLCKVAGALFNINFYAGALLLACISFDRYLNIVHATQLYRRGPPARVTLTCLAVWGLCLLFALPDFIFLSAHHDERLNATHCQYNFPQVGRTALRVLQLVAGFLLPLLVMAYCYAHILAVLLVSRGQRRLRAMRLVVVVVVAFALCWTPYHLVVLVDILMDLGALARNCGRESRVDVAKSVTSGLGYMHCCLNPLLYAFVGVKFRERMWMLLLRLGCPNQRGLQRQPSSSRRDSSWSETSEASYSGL

[18] = target: CXCR6 (Homo sapiens, UniProt O00574); assay: gpcrMAX PathHunter beta-arrestin
CXCR6, sequence (O00574 whole entry): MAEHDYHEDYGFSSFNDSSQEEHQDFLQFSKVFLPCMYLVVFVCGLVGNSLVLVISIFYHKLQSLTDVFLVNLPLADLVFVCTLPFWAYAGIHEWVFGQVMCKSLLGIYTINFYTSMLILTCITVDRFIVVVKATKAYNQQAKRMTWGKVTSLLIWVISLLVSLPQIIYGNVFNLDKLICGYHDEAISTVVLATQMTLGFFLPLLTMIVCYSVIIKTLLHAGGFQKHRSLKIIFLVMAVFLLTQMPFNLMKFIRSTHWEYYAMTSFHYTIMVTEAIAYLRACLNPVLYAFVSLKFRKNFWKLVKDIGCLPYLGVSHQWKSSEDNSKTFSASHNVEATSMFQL

[19] = target: DRD2S (Homo sapiens, UniProt P14416); assay: gpcrMAX PathHunter beta-arrestin
DRD2S, sequence (P14416 1-414 isoform P14416-2): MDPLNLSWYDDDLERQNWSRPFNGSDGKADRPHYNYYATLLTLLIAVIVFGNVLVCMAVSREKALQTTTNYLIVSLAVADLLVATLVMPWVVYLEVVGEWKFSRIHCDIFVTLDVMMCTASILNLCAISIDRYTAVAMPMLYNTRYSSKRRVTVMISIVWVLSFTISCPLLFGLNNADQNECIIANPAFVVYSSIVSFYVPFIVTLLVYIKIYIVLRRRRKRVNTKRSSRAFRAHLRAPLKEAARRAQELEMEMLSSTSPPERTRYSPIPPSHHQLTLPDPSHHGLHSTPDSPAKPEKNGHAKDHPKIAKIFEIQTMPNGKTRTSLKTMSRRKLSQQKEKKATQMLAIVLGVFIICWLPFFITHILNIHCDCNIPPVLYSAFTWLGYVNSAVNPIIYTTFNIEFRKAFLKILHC

[20] = target: EDG1 (Homo sapiens, UniProt P21453); assay: gpcrMAX PathHunter beta-arrestin
EDG1, sequence (P21453 whole entry): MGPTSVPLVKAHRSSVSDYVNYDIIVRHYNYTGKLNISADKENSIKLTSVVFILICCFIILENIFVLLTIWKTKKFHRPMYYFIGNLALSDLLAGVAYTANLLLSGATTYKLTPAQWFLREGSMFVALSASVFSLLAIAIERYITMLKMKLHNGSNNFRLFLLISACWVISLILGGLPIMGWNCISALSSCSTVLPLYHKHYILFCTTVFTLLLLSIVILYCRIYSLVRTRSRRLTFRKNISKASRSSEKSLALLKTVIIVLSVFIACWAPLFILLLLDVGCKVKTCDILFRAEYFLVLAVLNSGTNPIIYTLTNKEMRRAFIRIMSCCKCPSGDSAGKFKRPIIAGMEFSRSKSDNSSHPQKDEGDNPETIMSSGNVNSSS

[21] = target: F2RL3 (Homo sapiens, UniProt Q96RI0); assay: gpcrMAX PathHunter beta-arrestin
F2RL3, sequence (Q96RI0 18-385): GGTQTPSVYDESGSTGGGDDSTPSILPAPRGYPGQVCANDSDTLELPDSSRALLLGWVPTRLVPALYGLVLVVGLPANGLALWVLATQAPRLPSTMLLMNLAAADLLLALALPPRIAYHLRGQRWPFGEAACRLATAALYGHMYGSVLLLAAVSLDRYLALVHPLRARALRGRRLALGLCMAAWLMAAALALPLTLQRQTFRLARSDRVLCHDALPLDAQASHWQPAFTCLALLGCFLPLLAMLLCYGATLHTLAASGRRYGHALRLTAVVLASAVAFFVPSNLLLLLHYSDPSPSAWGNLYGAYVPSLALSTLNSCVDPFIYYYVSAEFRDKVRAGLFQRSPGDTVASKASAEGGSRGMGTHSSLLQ

[22] = target: GPR119 (Homo sapiens, UniProt Q8TDV5); assay: gpcrMAX PathHunter beta-arrestin
[23] = target: LHCGR (Homo sapiens, UniProt P22888); assay: gpcrMAX PathHunter beta-arrestin
[24] = target: NPFFR1 (Homo sapiens, UniProt Q9GZQ6); assay: gpcrMAX PathHunter beta-arrestin
NPFFR1, sequence (Q9GZQ6 whole entry): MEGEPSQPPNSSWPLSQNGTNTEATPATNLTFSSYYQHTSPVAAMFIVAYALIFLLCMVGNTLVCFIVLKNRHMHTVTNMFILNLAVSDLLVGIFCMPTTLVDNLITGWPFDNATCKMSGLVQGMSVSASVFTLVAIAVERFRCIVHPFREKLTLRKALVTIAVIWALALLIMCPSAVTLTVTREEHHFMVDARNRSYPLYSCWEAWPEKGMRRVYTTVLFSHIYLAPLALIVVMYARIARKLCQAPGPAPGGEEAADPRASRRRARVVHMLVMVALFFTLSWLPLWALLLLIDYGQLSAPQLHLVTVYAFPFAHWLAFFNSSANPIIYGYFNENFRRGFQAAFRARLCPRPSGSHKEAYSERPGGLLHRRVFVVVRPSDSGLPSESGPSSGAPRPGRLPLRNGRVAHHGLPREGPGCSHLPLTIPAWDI

[25] = target: P2RY12 (Homo sapiens, UniProt Q9H244); assay: gpcrMAX PathHunter beta-arrestin
P2RY12, sequence (Q9H244 whole entry, one chain of several): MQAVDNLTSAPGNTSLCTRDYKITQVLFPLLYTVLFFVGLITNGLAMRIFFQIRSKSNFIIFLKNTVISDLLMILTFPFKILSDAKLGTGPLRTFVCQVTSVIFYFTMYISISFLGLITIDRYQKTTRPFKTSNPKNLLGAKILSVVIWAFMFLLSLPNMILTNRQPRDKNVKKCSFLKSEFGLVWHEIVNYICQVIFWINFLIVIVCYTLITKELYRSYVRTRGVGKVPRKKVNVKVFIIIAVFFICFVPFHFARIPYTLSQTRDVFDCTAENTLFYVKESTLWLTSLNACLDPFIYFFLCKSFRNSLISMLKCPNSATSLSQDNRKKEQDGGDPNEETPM

[26] = target: PTGIR (Homo sapiens, UniProt P43119); assay: gpcrMAX PathHunter beta-arrestin
PTGIR, sequence (P43119 whole entry): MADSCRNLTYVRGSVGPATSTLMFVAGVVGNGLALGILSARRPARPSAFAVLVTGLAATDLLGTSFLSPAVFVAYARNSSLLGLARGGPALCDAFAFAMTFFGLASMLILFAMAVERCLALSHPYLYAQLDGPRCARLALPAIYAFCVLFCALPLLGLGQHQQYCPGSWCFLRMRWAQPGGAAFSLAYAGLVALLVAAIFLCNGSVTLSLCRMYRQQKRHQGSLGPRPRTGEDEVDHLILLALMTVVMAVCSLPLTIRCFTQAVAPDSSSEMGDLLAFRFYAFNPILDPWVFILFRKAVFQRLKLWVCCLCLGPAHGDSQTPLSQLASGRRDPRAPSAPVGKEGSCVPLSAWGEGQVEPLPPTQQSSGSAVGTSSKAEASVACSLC

[27] = target: PTHR1 (Homo sapiens, UniProt Q03431); assay: gpcrMAX PathHunter beta-arrestin
PTHR1, sequence (Q03431 27-593): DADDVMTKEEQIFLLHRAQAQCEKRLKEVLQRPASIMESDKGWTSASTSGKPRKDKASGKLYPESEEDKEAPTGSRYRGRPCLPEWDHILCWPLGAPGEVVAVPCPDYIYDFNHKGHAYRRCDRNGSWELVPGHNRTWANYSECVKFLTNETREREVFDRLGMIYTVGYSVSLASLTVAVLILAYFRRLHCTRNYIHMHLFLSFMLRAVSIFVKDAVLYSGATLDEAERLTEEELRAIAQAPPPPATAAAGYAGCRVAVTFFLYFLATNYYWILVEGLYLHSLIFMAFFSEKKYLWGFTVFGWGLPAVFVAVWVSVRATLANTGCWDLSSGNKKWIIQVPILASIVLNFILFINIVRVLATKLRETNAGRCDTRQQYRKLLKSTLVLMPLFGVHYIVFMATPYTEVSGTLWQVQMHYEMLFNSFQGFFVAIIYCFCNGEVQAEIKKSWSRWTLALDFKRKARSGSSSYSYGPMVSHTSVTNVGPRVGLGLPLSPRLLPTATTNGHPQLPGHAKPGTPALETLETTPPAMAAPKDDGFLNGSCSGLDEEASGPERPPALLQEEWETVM

[28] = target: RXFP3 (Homo sapiens, UniProt Q9NSD7); assay: gpcrMAX PathHunter beta-arrestin

For `Cc1c(Cl)cccc1NC(=O)c1sc2nc3c(cc2c1N)C(=O)CCC3` [Compound 1], the GI50 [1] is given as 46.4 nM, the GI50 [2] is given as 238 nM and the GI50 [3] is given as 70.1 nM. The GI50 [4] was 70.5 nM, the GI50 [5] was 476 nM and the GI50 [6] was 36.3 nM. The GI50 [7] was 18.7 nM, the GI50 [8] was 110 nM and the GI50 [9] was 102 nM. For the same compound, the GI50 [10] was 41.8 nM, the GI50 [11] was 73.1 nM and the inhibition at 10 µM [12] was 7%. For the same compound, the inhibition at 10 µM [13] was 5%, the inhibition at 10 µM [14] was -14% and the inhibition at 10 µM [15] was 8%. It also gave an inhibition at 10 µM [16] of 33%, an inhibition at 10 µM [17] of -19% and an inhibition at 10 µM [18] of 5%. The inhibition at 10 µM [19] was -6%, the inhibition at 10 µM [20] was -6% and the inhibition at 10 µM [21] was 9%. The inhibition at 10 µM [22] was 23%, the inhibition at 10 µM [23] was -2% and the inhibition at 10 µM [24] was -55%. The inhibition at 10 µM [25] was -25%, the “% Inhibition” value ([25]; antagonist mode, 10 µM) was “no antagonist modulation was observed” and the inhibition at 10 µM [26] was 8%. The inhibition at 10 µM [27] was 12% and the inhibition at 10 µM [28] was -27%.
